{
  "source": "patent US20070249623A1",
  "about": "“1-(Indole-6-Carbonyl-D-Phenylglycinyl)-4-(1-Methylpiperidin-4-Yl)Piperazine D-Tartrate” (Eli Lilly and Company Patent Division, priority 2004, published 2007)",
  "key": {"Factor Xa": {"target": "Factor Xa (Homo sapiens, UniProt P00742)", "sequence (P00742 235-488 limits assumed)": "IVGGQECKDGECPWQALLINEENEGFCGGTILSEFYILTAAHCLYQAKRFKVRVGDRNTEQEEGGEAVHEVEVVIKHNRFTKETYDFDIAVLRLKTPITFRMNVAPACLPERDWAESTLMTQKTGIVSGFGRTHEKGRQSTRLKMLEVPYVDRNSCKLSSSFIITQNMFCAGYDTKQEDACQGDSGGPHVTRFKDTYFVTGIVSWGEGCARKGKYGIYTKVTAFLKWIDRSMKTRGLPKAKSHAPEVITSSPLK", "sequence (P00742 41-179 partner limits assumed)": "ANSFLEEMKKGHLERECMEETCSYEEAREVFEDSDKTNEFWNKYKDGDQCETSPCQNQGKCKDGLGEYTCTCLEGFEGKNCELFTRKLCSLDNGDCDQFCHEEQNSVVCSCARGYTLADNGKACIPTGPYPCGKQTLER", "details": "as disclosed in WO 00/76971; cited from earlier work"}, "equilibrium solubility": {"test": "equilibrium solubility", "assay_type": "physicochemical", "details": "thermodynamic from solid, 25° C., measured as the free base"}, "[1]": {"test": "moisture sorption isotherm (vacuum microbalance)", "assay_type": "physicochemical", "details": "ambient temperature, once the dihydrate had been formed", "description": "A moisture sorption isotherm of the D-tartrate crystals was also determined using a vacuum microbalance, with a 40° C. drying step prior to initial data collection. With the initial drying step, an initial 6% weight loss was observed, consistent with the removal of the waters of crystallization. As the relative humidity was increased, the sample resorbed water, with rehydration being completed when the relative humidity reached about 20%."}, "[2]": {"test": "solid form stability at high relative humidity and in aqueous suspension", "assay_type": "physicochemical", "excerpt": "Salts of 1-(indole-6-carbonyl-D-phenylglycinyl)-4-(1-methylpiperidin-4-yl)piperazine that form crystalline solids are disclosed in Examples 48a (hydrochloride salt) and 48b (difumarate salt) of WO 01/96323. […] Thus, the form disclosed in WO 02/100847 as Form 1 is obtained as thin needles. The thin needle morphology has disadvantages for formulation, however, because of, inter alia, clustering and low bulk density. […] The form disclosed in WO 02/100847 as Form 2 has the disadvantage, inter alia, that the particle size is very small, resulting in extremely slow filtration."}},
  "note": "Like-named read-outs stand apart in the source and are kept apart here.",
  "data": [
    {"smiles": "CN1CCC(N2CCN(C(=O)[C@H](NC(=O)c3ccc4cc[nH]c4c3)c3ccccc3)CC2)CC1", "note": "[1-(indole-6-carbonyl-D-phenylglycinyl)-4-(1-methylpiperidin-4-yl)-piperazine]", "values": [
      {"measurement": "inhibition of Factor Xa", "setting": "Factor Xa", "result": "potent and selective inhibitor of Factor Xa"}
    ]},
    {"smiles": "CN1CCC(N2CCN(C(=O)[C@H](NC(=O)c3ccc4cc[nH]c4c3)c3ccccc3)CC2)CC1.O.O.O=C(O)C(O)C(O)C(=O)O", "note": "[D-tartrate crystals, 1-(Indole-6-carbonyl-D-phenylglycinyl)-4-(1-methylpiperidin-4-yl)piperazine D-Tartrate Dihydrate]", "values": [
      {"measurement": "solubility thermodynamic", "setting": "equilibrium solubility; simulated gastric fluid, 0.01 M HCl, read-out: equilibrium solubility in 0.01 M HCl", "result": "≥ 125", "unit": "mg/mL"},
      {"measurement": "solubility thermodynamic", "setting": "equilibrium solubility; water, read-out: equilibrium solubility in water", "result": "≥ 126", "unit": "mg/mL"},
      {"measurement": "stability of the dihydrate to relative humidity", "setting": "[1]", "result": "remained stable between 5 and 95% relative humidity"}
    ]},
    {"smiles": "CN1CCC(N2CCN(C(=O)[C@H](NC(=O)c3ccc4cc[nH]c4c3)c3ccccc3)CC2)CC1.O=C(O)/C=C/C(=O)O.O=C(O)/C=C/C(=O)O", "note": "[Form 1]", "values": [
      {"measurement": "form conversion under extremely high relative humidity", "setting": "[2]; above 80% relative humidity", "result": "convert to a different (higher) hydrate"},
      {"measurement": "form conversion in aqueous suspensions", "setting": "[2]; aqueous suspensions", "result": "convert into the form disclosed in WO 02/100847 as Form 2"}
    ]}
  ]
}
